From ChEMBL document CHEMBL3621040, “Dicarabrol, a new dimeric sesquiterpene from Carpesium abrotanoides L” (Bioorg Med Chem Lett, 2015)
≈ marks a conversion by molar mass, not a printed value.

Tests used:
[1] = tested on: K562; assay: Cytotoxicity against human K562 cells after 72 hrs by CCK8 assay; type: functional, cell-based; details: K562, 72 h
[2] = tested on: Influenza A virus; assay: Antiviral activity against Influenza A virus H3N2 infected in MDCK cells assessed as protection against virus-induced cytopathic effect after 48 hrs by crystal violet staining; type: functional, organism-based
[3] = tested on: MCF7; assay: Cytotoxicity against human MCF7 cells after 72 hrs by CCK8 assay; type: functional, cell-based; details: MCF7, 72 h
[4] = tested on: Mycobacterium tuberculosis; assay: Antimycobacterial activity against Mycobacterium tuberculosis H37Ra after 7 days by alamar blue dye assay; type: functional; details: 168 h
[5] = tested on: MOLT-4; assay: Cytotoxicity against human MOLT4 cells after 72 hrs by CCK8 assay; type: functional, cell-based; details: MOLT-4, 72 h
[6] = tested on: HL-60; assay: Cytotoxicity against human HL60 cells after 72 hrs by CCK8 assay; type: functional, cell-based; details: HL-60, 72 h
[7] = tested on: Influenza A virus; assay: Antiviral activity against Influenza A virus H1N1 infected in MDCK cells assessed as protection against virus-induced cytopathic effect after 48 hrs by crystal violet staining; type: functional, organism-based
[8] = tested on: A549; assay: Cytotoxicity against human A549 cells after 72 hrs by CCK8 assay; type: functional, cell-based; details: A549, 72 h
[9] = Cytotoxicity against human SGC7901 cells after 72 hrs by CCK8 assay; type: functional, cell-based; details: SGC-7901, 72 h
[10] = tested on: DU-145; assay: Cytotoxicity against human DU145 cells after 72 hrs by CCK8 assay; type: functional, cell-based; details: DU-145, 72 h
[11] = tested on: U-937; assay: Cytotoxicity against human U937 cells after 72 hrs by CCK8 assay; type: functional, cell-based; details: U-937, 72 h
[12] = tested on: NCI-H1975; assay: Cytotoxicity against human NCI-H1975 cells after 72 hrs by CCK8 assay; type: functional, cell-based; details: NCI-H1975, 72 h
[13] = tested on: HeLa; assay: Cytotoxicity against human HeLa cells after 72 hrs by CCK8 assay; type: functional, cell-based

Row | Compound | IC50 [1] | IC50 [2] | IC50 [3] | MIC [4] | IC50 [5] | IC50 [6] | IC50 [7] | IC50 [8] | IC50 [9] | IC50 [10] | IC50 [11] | IC50 [12] | IC50 [13]
1 | C=C1C(=O)O[C@@H]2C[C@]3(C)[C@@H](CCC(C)O)C[C@@]4(C(=O)O[C@@H]5C[C@@H]6[C@@H](CC[C@H](C)O)[C@@H]6C[C@@H]54)[C@@H]3C[C@H]12 (stereo not given in full) | 1200 nM | 30000 nM | 3300 nM | 3.7 µM (≈ 1.8 µg/mL) | 1300 nM | 100 nM | 15900 nM | 2700 nM | 710 nM | 310 nM | 150 nM | 1400 nM | 610 nM
2 | C=C1C(=O)O[C@H]2C[C@@]3(C)O[C@@H]3CC[C@@]3(C)O[C@@H]3C[C@H]12 | 1700 nM | 11600 nM | 4100 nM | 6 µM (≈ 1.59 µg/mL) | 1200 nM | 180 nM | 10800 nM | 2000 nM | 6400 nM | 380 nM | 210 nM | 5400 nM | 1000 nM
3 | NNC(=O)c1ccncc1 [ISONIAZID] | – | – | – | 2 µM (≈ 0.274 µg/mL) | – | – | – | – | – | – | – | – | –
4 | CCOC(=O)C1=C[C@@H](OC(CC)CC)[C@H](NC(C)=O)[C@@H](N)C1 [OSELTAMIVIR] | – | 15 nM | – | – | – | – | 25 nM | – | – | – | – | – | –
5 | CC(=O)O[C@H]1C(=O)[C@@]2(C)[C@H]([C@H](OC(=O)c3ccccc3)[C@]3(O)C[C@H](OC(=O)[C@H](O)[C@@H](NC(=O)c4ccccc4)c4ccccc4)C(C)=C1C3(C)C)[C@]1(OC(C)=O)CO[C@@H]1C[C@@H]2O [PACLITAXEL] | 3800 nM | – | – | – | 2700 nM | 3800 nM | – | 2100 nM | 9800 nM | 3100 nM | 2100 nM | 2800 nM | –
6 | C=C1C(=O)O[C@H]2C[C@@H](C)[C@@H]3CC[C@H](O)[C@@]3(C)C[C@H]12 [PSEUDOGUAIANOLIDE] | 17000 nM | 47300 nM | 11000 nM | 7.6 µM (≈ 1.9 µg/mL) | 5500 nM | 2400 nM | 29300 nM | 6200 nM | 22000 nM | 3100 nM | 2200 nM | 13000 nM | 6000 nM
